Source: paper PMC11279551, “Pharmacokinetics and Enterohepatic Circulation of 2-(Quinoline-8-carboxamido)benzoic Acid (2-QBA) in Mice” (Pharmaceutics, 2024)
≈ marks a conversion by molar mass, not a printed value.

Assays:
Water solubility = format: physicochemical; conditions: n = 4
[1] = Urinary and fecal excretion after IV or PO administration (metabolic cage); format: in vivo; conditions: mice, IV 1.0 mg/kg
Protocol: We also investigated the excretion profile of 2-QBA after IV and PO administration at doses of 1 mg/kg for IV and 2 mg/kg for PO. After IV or PO administration of 2-QBA, the mice were returned to a metabolic cage to collect the urine and feces samples. The urine and feces samples were collected during the periods of 0–24 h, 24–48 h, 48–72 h, and 72–96 h. The urine ball was washed using equal volumes of methanol and added to the urine samples. The fecal samples were homogenized with 9 volumes of water to yield 10% fecal homogenates. The aliquots (30 μL) of urine and 10% fecal homogenate samples were stored at −80 °C until the analysis of the 2-QBA. For the analysis of the 2-QBA, 120 μL of IS solution was added to the 30 μL aliquot of urine and 10% fecal homogenate samples. The mixture was vigorously vortexed for 5 min and then centrifuged at 13,000× g for 5 min. The supernatant was transferred to autosampler vials. Subsequently, a 3 μL aliquot was injected into the LC-MS/MS system.
WinNonlin 5.1 software (Pharsight Co., Mountain View, CA, USA) was used to calculate the pharmacokinetic parameters. AUClast and AUCinf indicate the areas under the plasma concentration curve from 0 h to the last sample and from 0 h to infinity, respectively; these were estimated using the linear trapezoidal method. T1/2 is the elimination half-life, which is estimated from the elimination coefficient (k) (i.e., 0.693/k), and MRT is the mean residence time. CL is the total clearance, which is calculated by dividing the dose by AUCinf. Vdss is the volume of the distribution at a steady state, calculated from MRTxCL. CLrenal and CLfeces are calculated by dividing the amount excreted in urine and feces by the AUCinf, respectively. CLmetabolism is calculated by subtracting CLrenal and CLfeces from CL. […] BA is calculated by dividing the dose-normalized AUCinf for PO administration (AUCinf/PO dose) by the dose-normalized AUCinf for IV administration (AUCinf/IV dose). All data are expressed as the mean ± standard deviation (SD).

[2] = Intestinal permeability in Ussing chamber; format: in vitro ADME, mice; conditions: upper and lower ileum
Protocol: The small intestines were isolated from fasted mice under isoflurane anesthesia (1–3% with oxygen gas flow) and dissected into three parts, the jejunum, upper ileum, and lower ileum. […] The intestinal permeability of 2-QBA was assessed by adding 0.5 mL of HBSS containing 20 μM of 2-QBA on the donor side and 0.5 mL of fresh HBSS on the receiver side. Then, a 100 μL aliquot was withdrawn from the receiver side every 30 min for 2 h and an equal volume of pre-warmed fresh HBSS was added to replenish the lost volume. To analyze the 2-QBA, 100 μL aliquots were mixed with 4 volumes of IS solution (1 ng/mL berberine in acetonitrile). The mixture was vigorously vortexed for 5 min and then centrifuged at 13,000× g for 5 min. The supernatant was transferred to autosampler vials. Subsequently, a 3 μL aliquot was injected into the LC-MS/MS system.

[3] = Stability of 2-QBA in mouse plasma (QC samples); format: in vitro ADME; conditions: for Freeze-thaw cycle stability, Accuracy / Bench-top stability, Accuracy: mouse plasma; for Freeze-thaw cycle stability, Accuracy: 3 cycles; for Bench-top stability, Accuracy: 25 °C for 6 h; for Autosampler stability, Accuracy: prepared plasma samples, 6 °C for 24 h
Protocol: The stability of 2-QBA in mouse plasma was tested in terms of its benchtop stability, freeze–thaw stability, and autosampler stability. In all stability tests, three sets of QC samples (3, 100, and 400 ng/mL) were prepared.
The benchtop stability was tested by incubating the samples at 25 °C for 6 h. For the freeze–thaw stability, the samples were placed at −80 °C for over 12 h for freezing and thawed at 25 °C for 6 h as one cycle; the same protocol was repeated for three cycles. Finally, the autosampler stability was tested by placing the prepared QC samples in the autosampler at 6 °C for 24 h. After analyzing all of the stability test samples, the concentrations were calculated using freshly prepared calibration standards.

Question: Which results are given for `O=C(O)c1ccccc1NC(=O)c1cccc2cccnc12` [2-QBA, 2-(quinoline-8-carboxamido)benzoic acid]?
Answer: solubility (Water solubility): 35.6 ± 2.71 µg/mL (≈ 122 µM); CL renal ([1]; male, ICR, mouse, urine): 5.47 ± 2.22 mL/min/kg; Amount excreted in feces for 96 h ([1]; parent form): 9.30 ± 6.17 % of dose; Amount excreted in urine for 96 h ([1]; parent form): 13.8 ± 4.24 % of dose; absorptive permeability class compared with marker compounds ([2]; jejunum): moderate to high; Papp A→B at 2 h, 20 μM ([2]; mouse, 20 μM donor, HBSS pH 7.4, range over jejunum, read-out: absorptive permeability): 4.46 to 10 ×10⁻⁶ cm/s; Freeze-thaw cycle stability, Accuracy ([3]; nominal 100 ng/mL): 104.3%; Freeze-thaw cycle stability, Accuracy ([3]; nominal 400 ng/mL): 106.4%; Bench-top stability, Accuracy ([3]; nominal 3 ng/mL): 98.51%; Bench-top stability, Accuracy ([3]; nominal 100 ng/mL): 89.14%; Bench-top stability, Accuracy ([3]; nominal 400 ng/mL): 91.55%; Autosampler stability, Accuracy ([3]; nominal 3 ng/mL): 109.5%; Autosampler stability, Accuracy ([3]; nominal 100 ng/mL): 103.1%; Autosampler stability, Accuracy ([3]; nominal 400 ng/mL): 108.7%
